{"source": "patent EP0643964A2", "about": "(priority 1993, dated 1995)", "key": {"M3 tumor": {"system": "M3 tumor", "experiment": "M3 transplanted mice, tumor area (lidocaine and epidoxorrubicine)", "assay_type": "in vivo"}, "pseudocholines-terase": {"target": "pseudocholines-terase (Homo sapiens, UniProt P06276)", "sequence (P06276 29-602, species assumed)": "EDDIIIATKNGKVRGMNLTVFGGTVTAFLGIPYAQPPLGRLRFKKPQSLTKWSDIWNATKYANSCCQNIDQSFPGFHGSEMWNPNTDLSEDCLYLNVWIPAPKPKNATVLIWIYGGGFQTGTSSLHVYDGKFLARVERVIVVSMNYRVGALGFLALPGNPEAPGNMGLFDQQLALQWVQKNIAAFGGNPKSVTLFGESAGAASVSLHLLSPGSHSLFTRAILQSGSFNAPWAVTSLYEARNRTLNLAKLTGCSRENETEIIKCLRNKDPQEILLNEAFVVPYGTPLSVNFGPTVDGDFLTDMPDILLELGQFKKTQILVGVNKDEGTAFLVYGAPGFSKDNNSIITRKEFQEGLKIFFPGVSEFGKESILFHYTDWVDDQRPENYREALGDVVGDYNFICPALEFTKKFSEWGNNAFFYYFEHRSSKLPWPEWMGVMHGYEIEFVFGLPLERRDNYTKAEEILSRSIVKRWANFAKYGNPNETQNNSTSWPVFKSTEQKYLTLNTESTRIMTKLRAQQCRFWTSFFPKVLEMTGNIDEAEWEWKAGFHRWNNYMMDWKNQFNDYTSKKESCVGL", "settings": "cited from earlier work"}, "herpes simplex": {"system": "herpes simplex", "experiment": "Evolution of recidivant periorificial herpes simplex infection in volunteers", "assay_type": "in vivo, human", "experimental": "Patients were divided into 3 groups: one of the groups (n=4) received acyclovir by oral route and topical applications of the same drug. […] Experiments began with the appearance of the next episode of herpes, just in the moment when vesicles appeared.\nAll these patients were controlled monthly during the following 4 months. During this time, group A patients presented episodes with a pattern similar to that they had before the experiment was performed. […] The remaining two presented an episode of herpes 2.8 and 3.3 months later."}, "Giardia lamblia": {"system": "Giardia lamblia", "experiment": "Patients with malabsorption syndrome (MAS) caused by Giardia lamblia", "assay_type": "in vivo, human", "settings": "Volunteer # 1, 7 days of treatment; recurrence one month later", "source_text": "Volunteer # 1: Type II MAS with positive isolation of Giardia lamblia in duodenal washings and confirmation of the disease by histopathology. […] One month later, patient 1 presented symptoms and signs of recurrence of the disease, with positive isolation of parasites in feces.\nVolunteer # 2: with diffuse abdominal pain, loss of body weight and steatorrhea."}, "[1]": {"settings": "global anesthesia by intravenous route; one death in more than 6200 patients; cited from earlier work"}, "[2]": {"settings": "in vivo; cited from earlier work"}, "[3]": {"settings": "herpes simplex episode, ACV oral+topical, lidocaine 5 ml 2% i.v. twice a day 2 days"}}, "note": "Where “and” joins values, the source holds several entries; their conditions need not be identical. Equal entries are not always repeated."}
{"smiles": "COc1cccc2c1C(=O)c1c(O)c3c(c(O)c1C2=O)C[C@@](O)(C(=O)CO)C[C@@H]3O[C@H]1C[C@H](N)[C@@H](O)[C@H](C)O1", "note": "[epidoxorrubicine]", "values": [{"measurement": "Area (tumor)", "setting": "M3 tumor; day 7 p-t (day 0), lidocaine 0.1 ml 0.05% every 7 days, epidoxorrubicine 0.125 ml 0.2% every 7 days, combination: lidocaine 2 days after epidoxorrubicine", "value": 0.46}, {"measurement": "Area (tumor)", "setting": "M3 tumor; day 10 p-t, regimens as Table 5 footnotes, saline control 0.92", "value": 0.90}, {"measurement": "I/Ø: Percentual increment over tumor in day 0 (day 7 p-t)", "setting": "M3 tumor; day 10 p-t, saline control 103.47", "value": 95.65, "unit": "%"}, {"measurement": "Area (tumor)", "setting": "M3 tumor; day 12 p-t, regimens as Table 5 footnotes, saline control 1.56", "value": 1.56}, {"measurement": "I/Ø: Percentual increment over tumor in day 0 (day 7 p-t)", "setting": "M3 tumor; day 12 p-t, saline control 245.61", "value": 238.04, "unit": "%"}, {"measurement": "Area (tumor)", "setting": "M3 tumor; day 14 p-t, regimens as Table 5 footnotes, saline control 2.06", "value": 2.36}, {"measurement": "I/Ø: Percentual increment over tumor in day 0 (day 7 p-t)", "setting": "M3 tumor; day 14 p-t, saline control 357.57", "value": 413.04, "unit": "%"}, {"measurement": "I/Ø: Percentual increment over tumor in day 0 (day 7 p-t)", "setting": "M3 tumor; day 16 p-t, saline control 516.74", "value": 316.30, "unit": "%"}, {"measurement": "Area (tumor)", "setting": "M3 tumor; day 18 p-t, regimens as Table 5 footnotes, saline control 3.61", "value": 2.41}, {"measurement": "I/Ø: Percentual increment over tumor in day 0 (day 7 p-t)", "setting": "M3 tumor; day 18 p-t, saline control 701.39", "value": 422.83, "unit": "%"}, {"measurement": "Area (tumor)", "setting": "M3 tumor; day 21 p-t, regimens as Table 5 footnotes, saline control 4.61", "value": 3.39}, {"measurement": "I/Ø: Percentual increment over tumor in day 0 (day 7 p-t)", "setting": "M3 tumor; day 21 p-t, saline control 923.86", "value": 637.68, "unit": "%"}, {"measurement": "Area (tumor)", "setting": "M3 tumor; day 23 p-t, regimens as Table 5 footnotes, saline control 5.49", "value": 3.57}, {"measurement": "I/Ø: Percentual increment over tumor in day 0 (day 7 p-t)", "setting": "M3 tumor; day 23 p-t, saline control 1119.69", "value": 676.81, "unit": "%"}, {"measurement": "Area (tumor)", "setting": "M3 tumor; day 25 p-t, regimens as Table 5 footnotes, saline control 6.24", "value": 4.16}, {"measurement": "I/Ø: Percentual increment over tumor in day 0 (day 7 p-t)", "setting": "M3 tumor; day 25 p-t, saline control 1286.33", "value": 804.35, "unit": "%"}, {"measurement": "Area (tumor)", "setting": "M3 tumor; mouse, in vivo", "value": 1.92}]}
{"smiles": "CCCCNc1ccc(C(=O)OCCN(C)C)cc1", "note": "[tetracaine]", "values": [{"measurement": "velocity of cleavage relative to procaine", "setting": "pseudocholines-terase", "value": "about 5 times more slowly than procaine"}]}
{"smiles": "Nc1nc2c(ncn2COCCO)c(=O)[nH]1", "note": "[ACV, acyclovir]", "values": [{"measurement": "Duration of lesions", "setting": "herpes simplex; [3]", "value": 7, "unit": "days"}, {"measurement": "Duration of symptoms", "setting": "herpes simplex; [3]", "value": 4, "unit": "days"}, {"measurement": "FIRST EPISODE AFTER TREATMENT", "setting": "herpes simplex; individual patients, followed monthly for 4 months", "value": "31 d. and 29 d d. and 33 d d. and 40 d."}]}
{"smiles": "Cc1ncc([N+](=O)[O-])n1CCO", "note": "[metronidazole]", "values": [{"measurement": "Clinical evolution", "setting": "Giardia lamblia", "value": "good evolution"}]}
{"smiles": "CCN(CC)CCOC(=O)c1ccc(N)cc1", "note": "[procaine]", "values": [{"measurement": "cleavage rate", "setting": "pseudocholines-terase; hydrolysis in blood plasma and liver", "value": 20, "unit": "mg. per minute"}, {"measurement": "deaths", "setting": "[1]", "value": "less than 0.01%"}, {"measurement": "half life", "setting": "[2]", "value": "about 0.7 minutes"}]}
